Our source for the mortality and LC50 values is ChEMBL document CHEMBL3045861, “Synthesis and insecticidal activity of N-tert-butyl-N,N'-diacylhydrazines containing 1,2,3-thiadiazoles” (2011).

Common to all, as to type: functional
The test system of assay [1] is Plutella xylostella. Description: Insecticidal activity against Plutella xylostella (diamondback moth) second-instar larvae grown on compound treated fresh cabbage leaves assessed as insect mortality at 200 ug/mL measured 96 hr post compound exposure by leaf film feeding method.
In assay [2] the test system is Culex pipiens pallens. Kind of assay: Insecticidal activity against Culex pipiens pallens (mosquito) fourth-instar larvae assessed as insect mortality at 2 ug/mL measured 96 hr post compound exposure.
For assay [3], the system named is Plutella xylostella. Description: Insecticidal activity against Plutella xylostella (diamondback moth) second-instar larvae grown on compound treated fresh cabbage leaves assessed as insect mortality at 400 ug/mL measured 96 hr post compound exposure by leaf film feeding method.
In assay [4] the test system is Culex pipiens pallens. Description: Insecticidal activity against Culex pipiens pallens (mosquito) fourth-instar larvae assessed as insect mortality at 0.5 ug/mL measured 96 hr post compound exposure.
Assay [5] concerns Culex pipiens pallens. Description: Insecticidal activity against Culex pipiens pallens (mosquito) fourth-instar larvae assessed as insect mortality at 1 ug/mL measured 96 hr post compound exposure.
Assay [6] concerns Plutella xylostella. Kind of assay: Insecticidal activity against Plutella xylostella (diamondback moth) second-instar larvae grown on compound treated fresh cabbage leaves assessed as insect mortality measured 96 hr post compound exposure by leaf film feeding method.

In brackets after ≈: the same amount, converted by molar mass.

In the case of `COc1cccc(C(=O)N(NC(=O)c2snnc2C)C(C)(C)C)c1`, in the assay on Plutella xylostella [1], the mortality at 200 µg/mL is 37%. In the assay with Culex pipiens pallens [2], the mortality at 2 µg/mL was found to be 20%.
In the same order, the values of `Cc1cccc(C(=O)N(NC(=O)c2snnc2C)C(C)(C)C)c1` are 0% and 20%.
With `COc1ccccc1C(=O)N(NC(=O)c1snnc1C)C(C)(C)C`, in the assay on Culex pipiens pallens [2], the mortality at 2 µg/mL was found to be 10%. In addition, in the assay on Plutella xylostella [3], the mortality at 400 µg/mL is 30%.
On to `Cc1nnsc1C(=O)NN(C(=O)c1cccc(C(F)(F)F)c1)C(C)(C)C`, for which, in the assay on Plutella xylostella [1], the mortality at 200 µg/mL is 46%. Moreover, the mortality at 2 µg/mL in the assay with Culex pipiens pallens [2] worked out at 40%.
With `Cc1nnsc1C(=O)N(NC(=O)c1ccc(Cl)cc1)C(C)(C)C`, the mortality at 2 µg/mL with Culex pipiens pallens [2] worked out at 20%. The mortality at 400 µg/mL in the assay on Plutella xylostella [3] amounted to 43%.
In the case of `Cc1nnsc1C(=O)N(NC(=O)c1cccc([N+](=O)[O-])c1)C(C)(C)C`, in the assay on Plutella xylostella [1], the mortality at 200 µg/mL came to 34%. Also, the mortality at 2 µg/mL with Culex pipiens pallens [2] worked out at 10%.
In the same order, the values of `Cc1nnsc1C(=O)NN(C(=O)c1cccc(Cl)c1)C(C)(C)C` are 0% and 30%.
The like results for `Cc1ccc(C(=O)NN(C(=O)c2snnc2C)C(C)(C)C)cc1` were, in that order, 37% and 0%.
In the same order, the values of `Cc1nnsc1C(=O)NN(C(=O)c1ccc(C(F)(F)F)cc1)C(C)(C)C` are 5% and 30%.
`COc1cccc(C(=O)NN(C(=O)c2snnc2C)C(C)(C)C)c1`: the mortality at 2 µg/mL in the assay with Culex pipiens pallens [2] came to 10%. Besides, the mortality at 400 µg/mL in the assay with Plutella xylostella [3] came out at 10%.
Consider `Cc1nnsc1C(=O)N(NC(=O)c1ccc(C(F)(F)F)cc1)C(C)(C)C`, for which the mortality at 200 µg/mL with Plutella xylostella [1] is 13%. Further, the mortality at 2 µg/mL in the assay with Culex pipiens pallens [2] is 40%.
For the molecule `Cc1ccccc1C(=O)NN(C(=O)c1snnc1C)C(C)(C)C`, the mortality at 200 µg/mL in the assay with Plutella xylostella [1] is 68%. Further, in the assay on Culex pipiens pallens [2], the mortality at 2 µg/mL is 100%. In addition, the mortality at 0.5 µg/mL in the assay on Culex pipiens pallens [4] was 30%. In addition, the mortality at 1 µg/mL with Culex pipiens pallens [5] is 100%.
In the case of `Cc1nnsc1C(=O)NN(C(=O)c1cccc([N+](=O)[O-])c1)C(C)(C)C`, the mortality at 2 µg/mL with Culex pipiens pallens [2] worked out at 30%. Moreover, the mortality at 400 µg/mL with Plutella xylostella [3] worked out at 23%.
On to `Cc1nnsc1C(=O)N(NC(=O)c1cccc(Cl)c1)C(C)(C)C`, for which the mortality at 200 µg/mL with Plutella xylostella [1] turned out to be 25%. Moreover, in the assay on Culex pipiens pallens [2], the mortality at 2 µg/mL was determined as 0%.
For the molecule `COc1ccc(C(=O)NN(C(=O)c2snnc2C)C(C)(C)C)cc1`, in the assay with Culex pipiens pallens [2], the mortality at 2 µg/mL was determined as 10%. For the same molecule, in the assay on Plutella xylostella [3], the mortality at 400 µg/mL worked out at 28%.
As to `Cc1ccc(C(=O)N(NC(=O)c2snnc2C)C(C)(C)C)cc1`, the mortality at 200 µg/mL with Plutella xylostella [1] was 15%. In the assay on Culex pipiens pallens [2], the mortality at 2 µg/mL was determined as 10%.
In the same order, the values of `COc1ccccc1C(=O)NN(C(=O)c1snnc1C)C(C)(C)C` are 29% and 10%.
For the molecule `Cc1nnsc1C(=O)NN(C(=O)c1ccccc1[N+](=O)[O-])C(C)(C)C`, in the assay with Culex pipiens pallens [2], the mortality at 2 µg/mL came to 10%. In addition, the mortality at 400 µg/mL in the assay with Plutella xylostella [3] worked out at 45%.
On to `Cc1nnsc1C(=O)NN(C(=O)c1ccc([N+](=O)[O-])cc1)C(C)(C)C`, for which the mortality at 200 µg/mL in the assay on Plutella xylostella [1] was 5%. Moreover, the mortality at 2 µg/mL in the assay on Culex pipiens pallens [2] was determined as 10%.
For `Cc1nnsc1C(=O)N(NC(=O)c1ccccc1[N+](=O)[O-])C(C)(C)C`, the mortality at 200 µg/mL in the assay with Plutella xylostella [1] amounted to 16%. The mortality at 2 µg/mL in the assay with Culex pipiens pallens [2] turned out to be 20%.
In the case of `Cc1nnsc1C(=O)N(NC(=O)c1ccc([N+](=O)[O-])cc1)C(C)(C)C`, the mortality at 200 µg/mL in the assay on Plutella xylostella [1] worked out at 33%. Moreover, the mortality at 2 µg/mL in the assay on Culex pipiens pallens [2] turned out to be 30%.
In the same order, the values of `Cc1nnsc1C(=O)NN(C(=O)c1ccccc1C(F)(F)F)C(C)(C)C` are 15% and 10%.
The like results for `Cc1cccc(C(=O)NN(C(=O)c2snnc2C)C(C)(C)C)c1` were, in that order, 12% and 20%.
For `Cc1nnsc1C(=O)N(NC(=O)c1ccccc1Cl)C(C)(C)C`, in the assay on Plutella xylostella [1], the mortality at 200 µg/mL came out at 24%. In addition, the mortality at 2 µg/mL with Culex pipiens pallens [2] was 20%.
The like results for `Cc1ccccc1C(=O)N(NC(=O)c1snnc1C)C(C)(C)C` were, in that order, 8% and 20%.
For the molecule `Cc1nnsc1C(=O)NN(C(=O)c1ccccc1Cl)C(C)(C)C`, the mortality at 200 µg/mL in the assay with Plutella xylostella [1] is 79%. Moreover, the mortality at 2 µg/mL in the assay with Culex pipiens pallens [2] worked out at 10%. The LC50 in the assay on Plutella xylostella [6] stood at 28 µg/mL (≈ 79.4 µM).
`Cc1nnsc1C(=O)N(NC(=O)c1cccc(C(F)(F)F)c1)C(C)(C)C`: the mortality at 200 µg/mL in the assay with Plutella xylostella [1] was 32%. Besides, the mortality at 2 µg/mL in the assay with Culex pipiens pallens [2] worked out at 100%. The mortality at 0.5 µg/mL in the assay on Culex pipiens pallens [4] came out at 0%. In the assay on Culex pipiens pallens [5], the mortality at 1 µg/mL came out at 100%.
Consider `COc1ccc(C(=O)N(NC(=O)c2snnc2C)C(C)(C)C)cc1`, for which, in the assay on Plutella xylostella [1], the mortality at 200 µg/mL stood at 25%. For the same molecule, in the assay on Culex pipiens pallens [2], the mortality at 2 µg/mL turned out to be 10%.
As to `CCc1ccc(C(=O)NN(C(=O)c2cc(C)cc(C)c2)C(C)(C)C)cc1` [TEBUFENOZIDE], the mortality at 200 µg/mL in the assay on Plutella xylostella [1] worked out at 40%. The mortality at 2 µg/mL in the assay on Culex pipiens pallens [2] came out at 100%. In addition, in the assay on Plutella xylostella [6], the LC50 stood at 26 µg/mL (≈ 73.8 µM). Also, the mortality at 0.5 µg/mL in the assay with Culex pipiens pallens [4] was 60%. In addition, the mortality at 1 µg/mL in the assay with Culex pipiens pallens [5] was 100%.
Take `Cc1nnsc1C(=O)NN(C(=O)c1ccc(Cl)cc1)C(C)(C)C`: in the assay with Plutella xylostella [1], the mortality at 200 µg/mL is 25%. In addition, in the assay on Culex pipiens pallens [2], the mortality at 2 µg/mL amounted to 100%. For the same molecule, the mortality at 0.5 µg/mL in the assay with Culex pipiens pallens [4] came to 10%. Further, in the assay with Culex pipiens pallens [5], the mortality at 1 µg/mL came out at 100%.
